Data published in patent US20260220796A1, “Systems and Methods for High Throughput Single Molecule Tracking in Living Cells” (EIKON THERAPEUTICS, INC., priority 2022, published 2026).
Entries after “also recorded” stand apart in the source; their conditions may differ. Where two headings read alike, the source gives them in different places.

Legend:
Estrogen Receptor (ER) [1] = biological target: T1, Estrogen Receptor (ER) (Homo sapiens, UniProt P03372); experiment: kinetic SMT (kSMT) of ER after compound addition; format: cell-based; conditions: FIG. 18C, 18D
T1 construct: expressed in transfected cells
T1 sequence (P03372 1-595): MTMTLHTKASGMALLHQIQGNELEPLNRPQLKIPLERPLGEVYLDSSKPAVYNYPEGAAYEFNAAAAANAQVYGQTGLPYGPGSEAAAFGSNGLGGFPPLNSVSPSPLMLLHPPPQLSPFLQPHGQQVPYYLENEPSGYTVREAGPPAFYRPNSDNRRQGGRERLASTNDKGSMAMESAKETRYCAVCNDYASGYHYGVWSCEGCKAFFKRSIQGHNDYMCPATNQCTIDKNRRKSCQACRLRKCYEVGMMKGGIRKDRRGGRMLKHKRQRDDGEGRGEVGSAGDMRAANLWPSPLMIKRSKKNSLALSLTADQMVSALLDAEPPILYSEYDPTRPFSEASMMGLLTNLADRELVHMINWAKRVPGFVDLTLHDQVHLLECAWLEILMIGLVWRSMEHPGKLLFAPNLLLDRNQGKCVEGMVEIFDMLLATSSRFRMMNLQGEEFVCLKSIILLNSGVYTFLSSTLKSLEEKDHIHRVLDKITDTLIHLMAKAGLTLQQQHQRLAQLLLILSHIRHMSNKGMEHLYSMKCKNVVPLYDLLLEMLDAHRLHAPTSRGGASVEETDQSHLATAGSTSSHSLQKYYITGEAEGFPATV

[2] = biological target: T2, glucocorticoid receptor (GR) (Homo sapiens, UniProt P04150); experiment: htSMT of Halo-GR in U2OS cells; format: cell-based; conditions: 1 μM antagonist, singly or with cognate agonist, FIG. 36D
T2 construct: Because U2OS cells express GR endogenously, HaloTag was inserted right before the stop codon of endogenous NR3C1; endogenous in cells; host or cells: U2OS, CRISPR/Cas9 HaloTag knock-in at the endogenous NR3C1 locus
T2 sequence (P04150 1-777): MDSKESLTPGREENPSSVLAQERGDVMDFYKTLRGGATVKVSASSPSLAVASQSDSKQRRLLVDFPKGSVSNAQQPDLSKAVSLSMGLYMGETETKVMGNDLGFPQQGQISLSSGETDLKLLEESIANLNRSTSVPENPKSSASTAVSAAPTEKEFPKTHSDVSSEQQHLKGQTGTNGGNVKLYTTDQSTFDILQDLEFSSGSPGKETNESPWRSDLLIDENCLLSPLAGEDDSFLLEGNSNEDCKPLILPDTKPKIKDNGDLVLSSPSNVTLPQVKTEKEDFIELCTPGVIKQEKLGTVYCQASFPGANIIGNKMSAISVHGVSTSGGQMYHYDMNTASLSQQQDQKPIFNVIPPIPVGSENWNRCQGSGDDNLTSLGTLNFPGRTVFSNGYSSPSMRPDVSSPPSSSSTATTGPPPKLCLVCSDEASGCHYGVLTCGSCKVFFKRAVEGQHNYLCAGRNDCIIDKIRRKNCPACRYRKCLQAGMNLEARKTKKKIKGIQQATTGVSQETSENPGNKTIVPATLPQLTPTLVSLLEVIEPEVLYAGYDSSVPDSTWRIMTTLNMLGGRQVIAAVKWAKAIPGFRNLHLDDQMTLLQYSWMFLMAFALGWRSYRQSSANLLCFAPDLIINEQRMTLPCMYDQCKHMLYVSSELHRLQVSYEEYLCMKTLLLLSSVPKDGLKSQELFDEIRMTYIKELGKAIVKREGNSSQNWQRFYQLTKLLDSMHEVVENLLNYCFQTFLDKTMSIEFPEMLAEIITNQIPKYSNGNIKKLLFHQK
Source text: Where appropriate, compounds were serially diluted in an Echo Qualified 384-Well Low Dead Volume Source Microplate (0018544, Beckman Coulter) to generate dose-titration source material.

Estrogen Receptor (ER) [3] = biological target: T1, Estrogen Receptor (ER); experiment: htSMT of Halo-ER in U2OS cells (fbound, Dfree); format: cell-based; conditions: for change in ER fbound (direction): follow-up of screen actives, dose titration or 100 nM
ER = biological target: T3, ER (Homo sapiens, UniProt P03372); experiment: Western blot of ER after compound treatment; format: cell-based; conditions: 24 hours prior to lysis; MCF7, T47d, U2OS Halo-ER; FIG. 22A
T3 construct: host or cells: Halo-ER U2OS, MCF7 or T47d (immunofluorescence)
T3 sequence (P03372 1-595): T1 sequence (P03372 1-595)

Estrogen Receptor (ER) [4] = biological target: T1, Estrogen Receptor (ER); experiment: residence time imaging of ER-Halo (track length survival); format: cell-based; conditions: 100 nM, versus DMSO, FIG. 18E
androgen receptor (AR) = androgen receptor (AR) (Homo sapiens, UniProt P10275)
androgen receptor (AR), sequence (P10275 whole entry): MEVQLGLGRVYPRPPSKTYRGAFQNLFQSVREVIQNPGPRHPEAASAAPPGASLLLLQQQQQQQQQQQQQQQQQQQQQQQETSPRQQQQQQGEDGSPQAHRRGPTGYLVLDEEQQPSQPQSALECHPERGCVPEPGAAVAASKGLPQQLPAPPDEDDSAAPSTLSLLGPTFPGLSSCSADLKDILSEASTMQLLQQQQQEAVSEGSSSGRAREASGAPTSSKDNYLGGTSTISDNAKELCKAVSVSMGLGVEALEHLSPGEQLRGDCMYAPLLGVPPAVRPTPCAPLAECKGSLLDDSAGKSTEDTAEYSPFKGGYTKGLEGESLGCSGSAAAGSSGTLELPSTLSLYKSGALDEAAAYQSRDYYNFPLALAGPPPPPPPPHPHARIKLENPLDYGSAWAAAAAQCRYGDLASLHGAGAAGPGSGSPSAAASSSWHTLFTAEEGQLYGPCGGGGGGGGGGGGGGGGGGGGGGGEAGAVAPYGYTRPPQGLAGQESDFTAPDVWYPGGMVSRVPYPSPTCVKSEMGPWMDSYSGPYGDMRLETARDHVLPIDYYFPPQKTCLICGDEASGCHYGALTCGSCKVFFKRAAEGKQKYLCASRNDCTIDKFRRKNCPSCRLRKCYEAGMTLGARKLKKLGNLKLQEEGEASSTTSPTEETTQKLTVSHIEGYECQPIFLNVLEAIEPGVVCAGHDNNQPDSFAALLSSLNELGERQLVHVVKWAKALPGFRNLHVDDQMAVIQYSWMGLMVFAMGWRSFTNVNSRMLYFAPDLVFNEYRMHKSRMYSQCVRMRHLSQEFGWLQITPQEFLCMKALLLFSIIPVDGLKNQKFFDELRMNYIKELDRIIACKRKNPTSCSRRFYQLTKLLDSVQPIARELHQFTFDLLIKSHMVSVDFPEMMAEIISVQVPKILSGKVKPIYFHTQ

`CC(C)C[C@H](NC(=O)[C@H](CCc1ccccc1)NC(=O)CN1CCOCC1)C(=O)N[C@@H](Cc1ccccc1)C(=O)N[C@@H](CC(C)C)C(=O)[C@@]1(C)CO1` [carfilzomib] was tested, and the “time course of overall effect on ER movement” value (“time course of overall effect” below) (Estrogen Receptor (ER) [1]) was “slowly increasing over the four-hour measurement window”.
For `CN(C)c1ccc(C(c2ccc(N(C)C)cc2)c2cc([N+](=O)[O-])ccc2Cl)cc1` [AL082D06], the “effect on GR chromatin binding (change in fbound)” value [2] was “decrease in chromatin binding”.
With `COc1cccc(-c2cc(F)ccc2[C@H]2Cc3nc(N)nc(C)c3C(=O)N2)n1` [HSP990] the “change in ER fbound (direction)” value (Estrogen Receptor (ER) [3]) was “increase in fbound” and the “time course of overall effect” value (Estrogen Receptor (ER) [1]) was “reached a plateau after an hour”.
With `C[C@]12CC[C@@H]3c4ccc(O)cc4C[C@@H](CCCCCCCCC[S+]([O-])CCCC(F)(F)C(F)(F)F)[C@H]3[C@@H]1CC[C@@H]2O` (stereo partly shown) [fulvestrant] the “change in ER fbound / ER movement in bioactive screen” value (Estrogen Receptor (ER) [3]; 1 μM compound versus DMSO, 5,067-molecule screen, FIG. 15, 18A) was “increase in fbound; also recorded: significantly increased fbound” and the “ER degradation (western blot)” value (ER) was “leads to the degradation of ER”.
In the case of `CC(C)C[C@H](NC(=O)[C@H](Cc1ccccc1)NC(=O)c1cnccn1)B(O)O` [bortezomib], the “time course of overall effect” value (Estrogen Receptor (ER) [1]) is reported as “slowly increasing over the four-hour measurement window”.
With 4-hydroxytamoxifen the “change in ER fbound / ER movement in bioactive screen” value (Estrogen Receptor (ER) [3]) was “significantly increased fbound” and the “maximal increase in fbound, compared” value (Estrogen Receptor (ER) [3]) was “lower maximal increases in fbound”.
With `CC(C)c1cc(-c2n[nH]c(=O)n2-c2ccc3c(ccn3C)c2)c(O)cc1O` [ganetespib] the “change in ER fbound (direction)” value (Estrogen Receptor (ER) [3]) was “increase in fbound”, the “time course of overall effect” value (Estrogen Receptor (ER) [1]) was “reached a plateau after an hour” and the “decrease in total number of long binding events” value (Estrogen Receptor (ER) [4]) was “four”.
With `CC(O)c1cc(C(=O)N[C@@H](C)Cn2ccc(-c3ccc(C#N)c(Cl)c3)n2)[nH]n1` (stereo partly shown) [Darolutamide] the “effect on AR chromatin binding (change in fbound)” value (androgen receptor (AR)) was “decrease in chromatin binding”.
